Test results from patent publication EP0394553A2, “Use of fluorine containing pyridone carboxylic acid derivatives for preparing a medicament for the treatment of HIV infections” (DAIICHI PHARMACEUTICAL CO., LTD., priority 1989, dated 1990).
Like-named read-outs stand apart in the source and are kept apart here.

System: HIV (LAV 1)
Test: microbe, parasite or virus in culture
Details: for Viable cell count / Viral antigen-positive cell percentage: 4-day addition; for viability at 1 µg/mL / viability at 10 µg/mL: Human immunodeficiency virus 1, CCRF-CEM
Procedure: Human T cell-derived, T4 antigen-positive CEM cells (provided by the Institut Pasteur, France) were used as host cells of HIV. Cell culture was carried out in a carbon dioxide-containing atmosphere in an incubator maintained at 37°C according to a conventional method [cf. […] The culture supernatant (5×10⁶ TCID₅₀/ml) obtained by subjecting CEM cells to HIV (LAV 1) infection and stored at -70°C was used as the HIV source.
The medium for cell culture (10 ml) placed in a plastic culture flask (25 cm²) was inoculated with CEM cells at a cell density of 2.5×10⁵ cells/ml. After 3 days of incubation, the culture was transferred to a 15-ml centrifuge tube and subjected to centrifugation at 1,000 revolutions per minute for 5 minutes for sedimentation of cells and removal of the culture medium.
The stock viral suspension was added to the host cells thus prepared to an MOI of 0.05 and the mixture was maintained at 37°C for 90 minutes with stirring at 30-minute intervals for viral adsorption. The medium was added to HIV-infected cells to a cell density of 5.0×10⁵ cells/ml to give an HIV-infected cell suspension.
A mixture (1.0 ml) of the three constituents mentioned below was added to each well of a 24-well plastic culture plate and the test substance final concentration was adjusted to 10 mcg/ml, 5 mcg/ml, 2.5 mcg/ml or 1 mcg/ml. The "no addition" wells (0 mcg/ml) served as controls.
After 4 days of incubation following viral infection, the cells in each well on the 24-well culture plate were suspended uniformly by pipetting and a 0.5-ml portion of the suspension was separated. A 2.0-ml portion of test substance-free fresh medium was added to the remaining 0.5-ml portion of the cell suspension, followed by incubation.
Seven days after viral infection, pipetting was performed to give a uniform cell suspension in each well and a 0.5-ml portion of the suspension was separated.
Incubation was continued and, 10 days after viral infection, a uniform cell suspension was produced in the same manner in each well and a 1.5-ml portion thereof was separated. A fresh 2.0-ml portion of the medium free of (or containing) the test substance was added to the well, followed by further incubation.
Fifteen days after viral infection, the cells in each well were suspended uniformly in the same manner in the medium and a 2.0-ml portion of the suspension was separated. A fresh 2.0-ml portion of the medium free of (or containing) the test substance was added to the remaining 0.5 ml of the cell suspension and incubation was continued.
Medium exchange was performed in the same manner 20 days and 25 days after viral infection.
The cell suspensions collected 4 days, 7 days, 10 days, 20 days and 30 days after viral infection were tested for viable cell count and viable cell percentage by trypan blue staining. At the same time, viral antigen-positive cell percentage determination was carried out by immunofluorescence using an anti-HIV antiserum isolated from a healthy carrier of HIV.
The numerical values given each is the mean for the respective two wells on the culture plate. The viable cell count is the total cell count minus the count of dead cells stained with trypan blue. The viable cell percentage is the percentage of viable cells among all the cells including dead cells. The viral antigen-positive cell percentage is the percentage of cells indicating antigen expression as found among all the cells including dead cells.

[1] = 96 h, read-out: Viable cell percentage, 1 mcg/ml, 4-day addition, after 4 days
[2] = 96 h, read-out: Viable cell percentage, 10 mcg/ml, 4-day addition, after 4 days
[3] = read-out: Viable cell percentage, 1 mcg/ml, 4-day addition, after 7 days
[4] = read-out: Viable cell percentage, 1 mcg/ml, 4-day addition, after 10 days
[5] = read-out: Viable cell percentage, 1 mcg/ml, 4-day addition, after 20 days
[6] = read-out: Viable cell percentage, 1 mcg/ml, 4-day addition, after 30 days
[7] = read-out: Viable cell percentage, 10 mcg/ml, 4-day addition, after 7 days
[8] = read-out: Viable cell percentage, 10 mcg/ml, 4-day addition, after 10 days
[9] = read-out: Viable cell percentage, 10 mcg/ml, 4-day addition, after 20 days
[10] = read-out: Viable cell percentage, 10 mcg/ml, 4-day addition, after 30 days

## CCN1CCN(c2c(F)cc3c(=O)c(C(=O)O)cn4c3c2OCC4C)CC1 (racemic) [IIIa, (±)-9-Fluoro-3-methyl-10-(4-ethyl-1-piperazinyl)-7-oxo-2,3-dihydro-7H-pyrido[1,2,3-de][1,4]benzoxazine-6-carboxylic acid]
1 mcg/ml, after 4 days
  Viable cell count: 240 × 10⁴ cells/ml
  Viral antigen-positive cell percentage: 72%
1 mcg/ml, after 7 days
  Viable cell count: 37 × 10⁴ cells/ml
  Viral antigen-positive cell percentage: 65%
1 mcg/ml, after 10 days
  Viable cell count: 19 × 10⁴ cells/ml
  Viral antigen-positive cell percentage: 30%
1 mcg/ml, after 20 days
  Viable cell count: 20 × 10⁴ cells/ml
  Viral antigen-positive cell percentage: 20%
1 mcg/ml, after 30 days
  Viable cell count: 14 × 10⁴ cells/ml
10 mcg/ml, after 4 days
  Viable cell count: 180 × 10⁴ cells/ml
  Viral antigen-positive cell percentage: 82%
10 mcg/ml, after 7 days
  Viable cell count: 61 × 10⁴ cells/ml
  Viral antigen-positive cell percentage: 75%
10 mcg/ml, after 10 days
  Viable cell count: 260 × 10⁴ cells/ml
  Viral antigen-positive cell percentage: 26%
10 mcg/ml, after 20 days
  Viable cell count: 310 × 10⁴ cells/ml
  Viral antigen-positive cell percentage: 18%
10 mcg/ml, after 30 days
  Viable cell count: 330 × 10⁴ cells/ml
  Viral antigen-positive cell percentage: 6%
[1]
  viability at 1 µg/mL: 92%
[2]
  viability at 10 µg/mL: 88%
[3]
  viability at 1 µg/mL: 57%
[4]
  viability at 1 µg/mL: 30%
[5]
  viability at 1 µg/mL: 78%
[6]
  viability at 1 µg/mL: 40%
[7]
  viability at 10 µg/mL: 74%
[8]
  viability at 10 µg/mL: 93%
[9]
  viability at 10 µg/mL: 91%
[10]
  viability at 10 µg/mL: 94%

## CCCN1CCN(c2c(F)cc3c(=O)c(C(=O)O)cn4c3c2OCC4C)CC1 (racemic) [IIIb, (±)-9-Fluoro-3-methyl-10-(4-n-propyl-1-piperazinyl)-7-oxo-2,3-dihydro-7H-pyrido[1,2,3-de][1,4]benzoxazine-6-carboxylic acid]
1 mcg/ml, after 4 days
  Viable cell count: 220 × 10⁴ cells/ml
  Viral antigen-positive cell percentage: 88%
1 mcg/ml, after 7 days
  Viable cell count: 53 × 10⁴ cells/ml
  Viral antigen-positive cell percentage: 62%
1 mcg/ml, after 10 days
  Viable cell count: 19 × 10⁴ cells/ml
1 mcg/ml, after 20 days
  Viable cell count: 25 × 10⁴ cells/ml
1 mcg/ml, after 30 days
  Viable cell count: 14 × 10⁴ cells/ml
10 mcg/ml, after 4 days
  Viable cell count: 190 × 10⁴ cells/ml
  Viral antigen-positive cell percentage: 80%
10 mcg/ml, after 7 days
  Viable cell count: 62 × 10⁴ cells/ml
  Viral antigen-positive cell percentage: 50%
10 mcg/ml, after 10 days
  Viable cell count: 240 × 10⁴ cells/ml
  Viral antigen-positive cell percentage: 40%
10 mcg/ml, after 20 days
  Viable cell count: 320 × 10⁴ cells/ml
  Viral antigen-positive cell percentage: 13%
10 mcg/ml, after 30 days
  Viable cell count: 300 × 10⁴ cells/ml
  Viral antigen-positive cell percentage: 4%
[1]
  viability at 1 µg/mL: 89%
[2]
  viability at 10 µg/mL: 89%
[3]
  viability at 1 µg/mL: 75%
[4]
  viability at 1 µg/mL: 27%
[5]
  viability at 1 µg/mL: 81%
[6]
  viability at 1 µg/mL: 36%
[7]
  viability at 10 µg/mL: 70%
[8]
  viability at 10 µg/mL: 83%
[9]
  viability at 10 µg/mL: 92%
[10]
  viability at 10 µg/mL: 94%

## CCCCN1CCN(c2c(F)cc3c(=O)c(C(=O)O)cn4c3c2OCC4C)CC1 (racemic) [IIIc, (±)-9-Fluoro-3-methyl-10-(4-n-butyl-1-piperazinyl)-7-oxo-2,3-dihydro-7H-pyrido[1,2,3-de][1,4]benzoxazine-6-carboxylic acid]
1 mcg/ml, after 4 days
  Viable cell count: 220 × 10⁴ cells/ml
  Viral antigen-positive cell percentage: 82%
1 mcg/ml, after 7 days
  Viable cell count: 46 × 10⁴ cells/ml
  Viral antigen-positive cell percentage: 70%
1 mcg/ml, after 10 days
  Viable cell count: 28 × 10⁴ cells/ml
1 mcg/ml, after 20 days
  Viable cell count: 10 × 10⁴ cells/ml
1 mcg/ml, after 30 days
  Viable cell count: 10 × 10⁴ cells/ml
10 mcg/ml, after 4 days
  Viable cell count: 200 × 10⁴ cells/ml
  Viral antigen-positive cell percentage: 80%
10 mcg/ml, after 7 days
  Viable cell count: 51 × 10⁴ cells/ml
  Viral antigen-positive cell percentage: 47%
10 mcg/ml, after 10 days
  Viable cell count: 250 × 10⁴ cells/ml
  Viral antigen-positive cell percentage: 9%
10 mcg/ml, after 20 days
  Viable cell count: 340 × 10⁴ cells/ml
  Viral antigen-positive cell percentage: 9%
10 mcg/ml, after 30 days
  Viable cell count: 320 × 10⁴ cells/ml
  Viral antigen-positive cell percentage: 3%
[1]
  viability at 1 µg/mL: 87%
[2]
  viability at 10 µg/mL: 92%
[3]
  viability at 1 µg/mL: 60%
[4]
  viability at 1 µg/mL: 33%
[5]
  viability at 1 µg/mL: 55%
[6]
  viability at 1 µg/mL: 32%
[7]
  viability at 10 µg/mL: 67%
[8]
  viability at 10 µg/mL: 93%
[9]
  viability at 10 µg/mL: 93%
[10]
  viability at 10 µg/mL: 95%

## CC(C)N1CCN(c2c(F)cc3c(=O)c(C(=O)O)cn4c3c2OCC4C)CC1 (racemic) [IIId, (±)-9-Fluoro-3-methyl-10-(4-isopropyl-1-piperazinyl)-7-oxo-2,3-dihydro-7H-pyrido[1,2,3-de][1,4]benzoxazine-6-carboxylic acid]
1 mcg/ml, after 4 days
  Viable cell count: 250 × 10⁴ cells/ml
  Viral antigen-positive cell percentage: 72%
1 mcg/ml, after 7 days
  Viable cell count: 50 × 10⁴ cells/ml
  Viral antigen-positive cell percentage: 70%
1 mcg/ml, after 10 days
  Viable cell count: 24 × 10⁴ cells/ml
1 mcg/ml, after 20 days
  Viable cell count: 12 × 10⁴ cells/ml
1 mcg/ml, after 30 days
  Viable cell count: 9 × 10⁴ cells/ml
10 mcg/ml, after 4 days
  Viable cell count: 190 × 10⁴ cells/ml
  Viral antigen-positive cell percentage: 78%
10 mcg/ml, after 7 days
  Viable cell count: 60 × 10⁴ cells/ml
  Viral antigen-positive cell percentage: 50%
10 mcg/ml, after 10 days
  Viable cell count: 280 × 10⁴ cells/ml
  Viral antigen-positive cell percentage: 25%
10 mcg/ml, after 20 days
  Viable cell count: 290 × 10⁴ cells/ml
  Viral antigen-positive cell percentage: 11%
10 mcg/ml, after 30 days
  Viable cell count: 300 × 10⁴ cells/ml
  Viral antigen-positive cell percentage: 4%
[1]
  viability at 1 µg/mL: 91%
[2]
  viability at 10 µg/mL: 88%
[3]
  viability at 1 µg/mL: 62%
[4]
  viability at 1 µg/mL: 28%
[5]
  viability at 1 µg/mL: 60%
[6]
  viability at 1 µg/mL: 31%
[7]
  viability at 10 µg/mL: 67%
[8]
  viability at 10 µg/mL: 91%
[9]
  viability at 10 µg/mL: 95%
[10]
  viability at 10 µg/mL: 94%
